One compound from ChEMBL document CHEMBL5316291 (J Med Chem, 2023) can be followed below.

Active and inactive are the calls of the source. No cut-off for these calls is given here.

The target in data set [1] is T1, Protein mono-ADP-ribosyltransferase TIPARP (Homo sapiens) (UniProt Q7Z3E1).
T1 sequence (whole entry): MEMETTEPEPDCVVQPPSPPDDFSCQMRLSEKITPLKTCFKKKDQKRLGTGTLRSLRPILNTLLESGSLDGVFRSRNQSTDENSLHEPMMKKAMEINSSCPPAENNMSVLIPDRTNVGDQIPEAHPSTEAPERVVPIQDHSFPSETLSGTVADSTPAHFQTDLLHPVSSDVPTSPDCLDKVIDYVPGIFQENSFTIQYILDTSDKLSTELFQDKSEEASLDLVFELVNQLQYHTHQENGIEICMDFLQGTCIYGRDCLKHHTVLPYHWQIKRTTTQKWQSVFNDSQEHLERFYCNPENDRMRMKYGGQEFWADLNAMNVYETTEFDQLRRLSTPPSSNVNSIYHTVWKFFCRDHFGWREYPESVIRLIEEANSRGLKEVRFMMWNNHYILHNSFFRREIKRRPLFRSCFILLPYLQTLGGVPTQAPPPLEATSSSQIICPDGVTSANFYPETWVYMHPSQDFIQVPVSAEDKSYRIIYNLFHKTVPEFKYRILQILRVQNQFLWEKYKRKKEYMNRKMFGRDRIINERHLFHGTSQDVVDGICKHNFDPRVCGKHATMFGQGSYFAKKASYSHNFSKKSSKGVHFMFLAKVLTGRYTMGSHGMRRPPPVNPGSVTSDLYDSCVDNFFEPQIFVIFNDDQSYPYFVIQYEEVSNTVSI
Description: Inhibition of human recombinant N-terminal FLAG tagged PARP7 (400 to 657 end residues) at 100 nM incubated for 1 hr by ELISA assay relative to control. On the technique in general: In an ELISA, binding on a coated surface is turned into a signal by an enzyme label.

Data set [2] in a line: Tmax in ICR mouse at 1 mg/kg, iv measured upto 24 hrs by LC-MS/MS analysis. It counts as ADME, organism-based. The note with it: in vivo.
Data set [3] is described as follows: Tmax in ICR mouse at 10 mg/kg, po measured upto 24 hrs by LC-MS/MS analysis. It counts as ADME, organism-based. Conditions: in vivo.
A short description of data set [4]: Initial plasma concentration in ICR mouse at 1 mg/kg, iv measured upto 24 hrs by LC-MS/MS analysis. It counts as ADME, organism-based.
A short description of data set [5]: Clearance in ICR mouse at 1 mg/kg, iv measured upto 24 hrs by LC-MS/MS analysis. The note with it: in vivo. It counts as ADME, organism-based.
Data set [6] can be described thus: Clearance in ICR mouse at 10 mg/kg, po measured upto 24 hrs by LC-MS/MS analysis. It counts as ADME, organism-based. Conditions: in vivo.
Data set [7] in a line: MRT(0 to infinity) in ICR mouse at 1 mg/kg, iv measured upto 24 hrs by LC-MS/MS analysis. Conditions: in vivo. It counts as ADME, organism-based.
Data set [8] can be described thus: MRT(0 to infinity) in ICR mouse at 10 mg/kg, po measured upto 24 hrs by LC-MS/MS analysis. It counts as ADME, organism-based. The note with it: in vivo.
A short description of data set [9]: Cytotoxicity against mouse AML12 cells assessed as inhibition of cell growth measured after 6 days by MTT assay. It counts as toxicity, cell-based. For orientation: Formazan colour is commonly taken as a measure of viable cells.
Data set [10] has as its target T2, Protein mono-ADP-ribosyltransferase TIPARP (Mus musculus) (UniProt Q8C1B2).
T2 sequence (whole entry): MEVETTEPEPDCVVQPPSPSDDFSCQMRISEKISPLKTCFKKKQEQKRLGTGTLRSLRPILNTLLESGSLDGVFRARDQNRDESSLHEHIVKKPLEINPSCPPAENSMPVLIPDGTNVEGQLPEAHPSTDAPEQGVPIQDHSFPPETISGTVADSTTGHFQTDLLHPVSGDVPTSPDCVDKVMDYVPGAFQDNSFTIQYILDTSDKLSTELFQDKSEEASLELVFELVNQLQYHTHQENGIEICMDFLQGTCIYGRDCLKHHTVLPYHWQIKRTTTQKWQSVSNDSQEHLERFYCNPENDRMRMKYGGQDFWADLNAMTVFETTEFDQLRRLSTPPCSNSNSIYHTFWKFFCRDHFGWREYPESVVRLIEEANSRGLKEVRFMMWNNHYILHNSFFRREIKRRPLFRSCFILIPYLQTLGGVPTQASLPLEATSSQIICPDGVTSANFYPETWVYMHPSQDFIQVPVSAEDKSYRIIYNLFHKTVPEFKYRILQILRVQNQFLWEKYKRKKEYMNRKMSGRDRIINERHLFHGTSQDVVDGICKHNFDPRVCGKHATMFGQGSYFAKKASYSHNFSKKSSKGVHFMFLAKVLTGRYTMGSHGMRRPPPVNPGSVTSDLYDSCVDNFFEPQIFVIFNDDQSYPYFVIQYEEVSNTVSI
In words: Inhibition of PARP7 in mouse CT26 cells assessed as increase in […] levels at 49 to 4000 nmol/L measured after 48 hrs by RT-qPCR analysis. It counts as cell-based. The note with it: dose lower […], dose upper 4000.0 nmol/L. (Real-time PCR tracks product formation cycle by cycle.)

The target of data set [11] is Voltage-gated inwardly rectifying potassium channel KCNH2 (Homo sapiens, UniProt Q12809). Description: Inhibition of hERG. It counts as toxicity.
Chain of Voltage-gated inwardly rectifying potassium channel KCNH2 (Q12809 whole entry): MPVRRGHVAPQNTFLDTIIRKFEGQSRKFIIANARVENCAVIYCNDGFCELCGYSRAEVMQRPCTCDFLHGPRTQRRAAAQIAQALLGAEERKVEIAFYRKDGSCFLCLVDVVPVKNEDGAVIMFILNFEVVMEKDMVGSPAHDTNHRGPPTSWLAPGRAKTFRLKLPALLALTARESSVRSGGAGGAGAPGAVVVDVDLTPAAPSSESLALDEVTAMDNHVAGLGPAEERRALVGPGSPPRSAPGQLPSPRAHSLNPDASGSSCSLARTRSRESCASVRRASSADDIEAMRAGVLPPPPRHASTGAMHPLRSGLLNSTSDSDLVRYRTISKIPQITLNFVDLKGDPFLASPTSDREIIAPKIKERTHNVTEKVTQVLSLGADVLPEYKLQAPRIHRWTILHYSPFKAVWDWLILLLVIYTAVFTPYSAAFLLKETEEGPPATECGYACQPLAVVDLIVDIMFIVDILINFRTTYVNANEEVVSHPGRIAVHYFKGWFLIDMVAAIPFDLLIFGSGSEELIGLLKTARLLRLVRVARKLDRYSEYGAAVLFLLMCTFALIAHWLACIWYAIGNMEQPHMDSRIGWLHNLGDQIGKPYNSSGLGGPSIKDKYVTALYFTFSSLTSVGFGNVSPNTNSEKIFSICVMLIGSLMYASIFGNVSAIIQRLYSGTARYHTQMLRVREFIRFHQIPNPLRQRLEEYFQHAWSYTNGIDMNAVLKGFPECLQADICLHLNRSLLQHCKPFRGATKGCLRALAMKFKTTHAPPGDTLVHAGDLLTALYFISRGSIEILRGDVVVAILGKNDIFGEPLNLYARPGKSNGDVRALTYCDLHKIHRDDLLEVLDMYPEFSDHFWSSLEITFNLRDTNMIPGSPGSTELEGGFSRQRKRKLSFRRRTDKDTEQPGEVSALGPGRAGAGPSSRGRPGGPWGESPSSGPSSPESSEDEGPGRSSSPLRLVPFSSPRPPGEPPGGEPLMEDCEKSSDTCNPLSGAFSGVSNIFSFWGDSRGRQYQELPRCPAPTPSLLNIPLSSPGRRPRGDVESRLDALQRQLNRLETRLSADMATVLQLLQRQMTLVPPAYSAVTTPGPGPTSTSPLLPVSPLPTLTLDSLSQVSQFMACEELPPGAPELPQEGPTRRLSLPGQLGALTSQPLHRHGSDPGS
The nature of data set [12]: Toxicity in BALB/c mouse implanted with mouse CT26 cells assessed as change in body weight at 25 to 100 mg/kg, po measured for 14 days. It counts as organism-based. Conditions: in vivo, 336 h, dose 25-100 mg/kg, time 14 day.
In data set [13] the test system is CT26. Description: Antitumor activity against mouse CT26 cells implanted in BALB/c mouse assessed as tumor cell contraction at 25 to 100 mg/kg, po bid measured for 14 days by hematoxylin and eosin staining based fluorescence microscopic analysis. It counts as functional, organism-based. The note with it: dose 25-100 mg/kg, time 14.0 day.
Data set [14] has as its system CT26. Description: Antitumor activity against mouse CT26 cells implanted in BALB/c mouse assessed as tumor cell agglutination at 25 to 100 mg/kg, po bid measured for 14 days by hematoxylin and eosin staining based fluorescence microscopic analysis. It counts as functional, organism-based. Conditions: dose 25-100 mg/kg, time 14.0 day.
Data set [15] concerns CT26. Description: Antitumor activity against mouse CT26 cells implanted in BALB/c mouse assessed as decrease in Ki-67 expression at 25 to 100 mg/kg, po bid measured for 14 days by immunohistochemistry analysis. It counts as functional, organism-based. The note with it: dose 25-100 mg/kg, time 14.0 day.
Data set [16] in a line: Toxicity in BALB/c mouse implanted with mouse CT26 cells assessed as lung damage at 100 mg/kg, po measured for 14 days by hematoxylin and eosin staining based fluorescence microscopic analysis. It counts as organism-based. Conditions: in vivo, 336 h, time 14 day.
Data set [17] is described as follows: Toxicity in BALB/c mouse implanted with mouse CT26 cells assessed as liver damage at 100 mg/kg, po measured for 14 days by hematoxylin and eosin staining based fluorescence microscopic analysis. It counts as organism-based. The note with it: in vivo, 336 h, time 14 day.
Data set [18] has as its system CT26. Description: Antitumor activity against mouse CT26 cells implanted in po dosed BALB/c mouse assessed as increase in IFN-beta levels at 100 mg/kg measured after 14 days by RT-qPCR analysis. It counts as functional, organism-based. Conditions: time 14.0 day.
Data set [19] concerns CT26. Description: Antitumor activity against mouse CT26 cells implanted in BALB/c mouse assessed as increase in infiltration of CD4 positive CD8 positive T lymphocytes in tumors at 50 mg/kg, po measured after 14 days by flow cytometry (reference value: 6.67%). It counts as functional. The note with it: time 14 day.
In data set [20] the test system is CT26. In words: Antitumor activity against mouse CT26 cells implanted in po dosed BALB/c mouse assessed as increase in PARP7 levels at 50 to 100 mg/kg measured after 14 days by RT-qPCR analysis. The note with it: dose 50-100 mg/kg, time 14.0 day. It counts as functional, organism-based.
Data set [21] concerns CT26. In words: cells. The note with it: Mus musculus, CT26, 144 h.
Data set [22] has as its system CT26. Description: cells. The note with it: Mus musculus, CT26, 144 h. This is another data set of the same source.

As a reminder, the inhibition is the drop in the measured response relative to a control, in per cent. By Tmax is commonly meant the time at which the peak concentration occurs. What is called clearance is the rate of elimination divided by the concentration. A lower clearance goes with a low capacity for elimination. Usually CL/F stands for clearance divided by bioavailability, as obtained after extravascular dosing. By MRT inf is commonly meant the average time that molecules of a dose stay in the body. A word on the IC50: it is the concentration needed to halve the response being measured. With `C[C@@H](CN1CC(C(=O)N2CCN(c3ncc(C(F)(F)F)cn3)CC2)C1)Nc1cn[nH]c(=O)c1C(F)(F)F`, the inhibition in data set [1] was determined as 70.5%. For the same compound, the time of peak concentration (Tmax) turned out to be 4.8 min in data set [2] and 34.8 min in data set [3]. Also, in data set [4], the C0 at 24 h is 504 ng/mL. The compound further showed a clearance in [5] of 29 mL/min/kg. Further, the CL/F in data set [6] is 30.3 mL/min/kg. Further, the MRT inf in data set [7] turned out to be 1.68 h; in data set [8] it was 1.97 h. Moreover, the concentration for half-maximal inhibition (IC50) at 6 days in data set [9] was above 50 µM. Moreover, the inhibition entry in data set [10] was “Active”. Moreover, the “inhibition (INH)” value in [11] is “Not Active”. Moreover, the Activity result in [12] was “Non-Toxic”; in [16] it was “Non-Toxic”; in data set [17], “Non-Toxic”; in data set [19], 26.6%. The result in data set [13], in data set [14], in [15] and in data set [18] was Active. For the same compound, the result in data set [20] was inactive. In addition, the 50% inhibitory concentration (IC50) was found to be 12.8 µM in data set [21] and 19.5 µM in data set [22].
